# Experiments:
# CT26 tumor = experiment: Tumor growth inhibition test in CT26 tumor-bearing mice; type: in vivo; details: αPD-1 5 mg/kg i.p. every 3 days x3
# Protocol: CT26 cells (2×10^6) were suspended in cold PBS and subcutaneously injected to establish CT26 tumor-bearing mice.
# The tumor volume was measured using calipers and calculated for each mouse using the following equation: V=½ab^2 (a is the longest axis and b is the shortest axis). After the treatment schedule, the tumors were excised and weighed.
# The tumor volume was measured every day by measuring long-axis and short-axis of the tumor using calipers.
# exosomal PD-L1 = experiment: Exosomal PD-L1 in plasma of CT26 tumor-bearing mice (ELISA); type: in vivo; details: SFX 200 mg/kg, αPD-1 5 mg/kg, FIG. 4C
# Protocol: To assess PD-L1 on EXOs isolated from mouse plasma, ELISA plates were coated with a monoclonal antibody against PD-L1 (R&D Systems, Minneapolis, MN, USA) overnight at 25° C. Free binding sites were blocked with blocking buffer for 2 h at 25° C. After washing the plates with 0.05% Tween-20 in PBS, EXOs were added to each well and incubated for 2 h at 25° C. […] The plate was incubated for 20 min with a substrate solution composed of H2O2 and tetramethylbenzidine. After the addition of a stop solution containing 2N H2SO4 (R&D Systems, DY994), the plate was immediately read at 450 nm using an xMark™ microplate reader (Bio-Rad).
# CT26 cells = experiment: Ability of PDC to inhibit exosome secretion in CT26 cells (NTA); type: cell-based, murine; set-up: dose or concentration left out as unconfirmed; details: FIG. 14
# Protocol: To evaluate the ability of PEG-b-Poly(L-lysine-CDM-SFX) to inhibit the secretion of exosomes, CT26 cells, a murine colon cancer cell line, were treated with 100 µM of SFX and the same amount of PDC, exosomes from the supernatant were separated, and secreted exosomes were quantitatively analyzed.
# In addition, to evaluate the ability of PEG-SS-AMB to inhibit the secretion of exosomes, CT26 cells, a murine colon cancer cell line, were treated with […] of PEG-SS-AMB, exosomes from the supernatant were separated, and secreted exosomes were quantitatively analyzed.
compound,measurement,setting,value
"COc1ccccc1Oc1c(NS(=O)(=O)c2ccc(C(C)(C)C)cc2)nc(-c2ncccn2)nc1OCCO [BST, bosentan]",tumor growth (tumor volume),"CT26 tumor; BST 10 mg/kg orally daily, FIG. 16B",effectively retarded
"CCCNS(=O)(=O)Nc1ncnc(OCCOc2ncc(Br)cn2)c1-c1ccc(Br)cc1 [MCT, macitentan]",tumor growth (tumor volume),"CT26 tumor; MCT 50 mg/kg orally daily, FIG. 17B",effectively retarded
"Cc1noc(NS(=O)(=O)c2ccc(N)cc2)c1C [SFX, sulfisoxazole]",exosomal PD-L1 levels in the plasma,exosomal PD-L1,significantly decreased
same,inhibition of exosome secretion compared to the untreated control group,CT26 cells,more than 50%
